Values after ≈ are worked out from the molar mass of the structure shown. Active and inactive are the calls of the source. The calls are words filed in the database; no cut-off is given here.
Legend:
Format in all cases: functional, organism-based
Bacillus anthracis [1] = experiment: Antimicrobial activity against Bacillus anthracis MurA1 AS clone 2G2 assessed as growth inhibition in presence of xylose by antisense-induced hypersensitive testing
Bacillus anthracis [2] = experiment: Antimicrobial activity against Bacillus anthracis MurA1 AS clone 2G2 assessed as growth inhibition in absence of xylose by antisense-induced hypersensitive testing
Bacillus anthracis [3] = experiment: Antimicrobial activity against Bacillus anthracis metRS1 AS 1H1 assessed as growth inhibition in presence of xylose by antisense-induced hypersensitive testing
[4] = Bacillus anthracis, MurA1 AS clone 2G2, read-out: IC50

## CN[C@H](CC(C)C)C(=O)N[C@H]1C(=O)N[C@@H](CC(N)=O)C(=O)N[C@H]2C(=O)N[C@H]3C(=O)N[C@H](C(=O)N[C@H](C(=O)O)c4cc(O)cc(O)c4-c4cc3ccc4O)[C@H](O)c3ccc(c(Cl)c3)Oc3cc2cc(c3O[C@@H]2O[C@H](CO)[C@@H](O)[C@H](O)[C@H]2O[C@H]2C[C@](C)(N)[C@H](O)[C@H](C)O2)Oc2ccc(cc2Cl)[C@H]1O
Bacillus anthracis [1]
  inhibition: Active

## CN(C)[C@@H]1C(O)=C(C(N)=O)C(=O)[C@@]2(O)C(O)=C3C(=O)c4c(O)cccc4[C@@](C)(O)[C@H]3C[C@@H]12 [TETRACYCLINE]
Bacillus anthracis [2]
  IC50: Not Active
Bacillus anthracis [1]
  IC50: Not Active

## C[C@@H]1O[C@@H]1P(=O)(O)O [FOSFOMYCIN]
Bacillus anthracis [2]; [4]
  IC50: 126 µg/mL (≈ 913 µM)
Bacillus anthracis [1]; [4]
  IC50: 18 µg/mL

## CCN1CCN(C(=O)N[C@@H](C(=O)N[C@@H]2C(=O)N3[C@@H]2SC(C)(C)[C@@H]3C(=O)O)c2ccccc2)C(=O)C1=O
Bacillus anthracis [1]
  inhibition: Active

## Cc1onc(-c2ccccc2)c1C(=O)N[C@@H]1C(=O)N2[C@@H]1SC(C)(C)[C@@H]2C(=O)O
Bacillus anthracis [1]
  inhibition: Active

## O=C(O)c1ccc(OCc2nc3ccccc3[nH]2)c(OCc2ccc(Cl)cc2Cl)c1
Bacillus anthracis [3]
  inhibition: Active

— ChEMBL document CHEMBL1275423 (Antimicrob Agents Chemother, 2008)
